Reference: patent US20140057915A1, “KINASE INHIBITORS” (TOPIVERT PHARMA LIMITED, priority 2012, published 2014)

How the values were obtained:
GSK3α [1] = biological target: T1, GSK3α (Homo sapiens, UniProt P49840); assay: GSK 3α enzyme inhibition (FRET), Method 1; type: biochemical; conditions: Table 4a1
Procedure, shortened: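 Steps: preincubate GSK3α with compound 2 hr at room temperature; start reaction with peptide and ATP for 1 hr; develop with site-specific protease for 1 hr; measure fluorescence and take the coumarin/fluorescein ratio as the phosphorylation level.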

[2] = test system: TNFα release, d-U937 cells; assay: LPS-induced TNFα release in d-U937 cells; type: cell-based; conditions: Homo sapiens, dU937; relative to 10 μg/mL BIRB796; Table 4c1; read-out: LPS Induced Release of Cytokine in d-U937 Cells, TNFα REC50
Procedure, shortened: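 U937 cells differentiated with PMA (100 ng/mL, 48–72 hr), pre-treated with compound for 2 hr, then stimulated with E. coli LPS (0.1 μg/mL) for 4 hr. Supernatant cytokine measured by sandwich ELISA; inhibition versus vehicle control, REC50 from concentration-response curve.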

cSrc = cSrc (Homo sapiens, UniProt P12931); assay: c-Src enzyme inhibition (FRET); type: biochemical
Procedure, shortened: (§1)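 Kinase activity is measured on a dual-labelled synthetic peptide by FRET. ATP is supplied as an 800 μM solution for c-Src and a 60 μM solution for Syk. Compound is tested at four added concentrations, 4 to 0.004 μg/mL.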

[3] = test system: ICAM-1 expression, BEAS2B cells; assay: Poly I:C-induced ICAM-1 expression in BEAS2B cells; type: cell-based; conditions: Homo sapiens, BEAS-2B; read-out: Poly IC induced ICAM1 in BEAS2B, IC50
Procedure, shortened: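 BEAS2B human bronchial epithelial cells pre-incubated 2 h with compound, then transfected with poly I:C (1 μg/mL) plus Oligofectamine. After 18 h, cell-surface ICAM-1 read by cell-based ELISA (A450–655), normalised to Crystal Violet cell number (A595); inhibition calculated against vehicle control at each concentration.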

d-U937 cells = assay: Cell viability: MTT assay; type: cell-based, human; conditions: 1 μg/mL
Procedure, shortened: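 Differentiated U937 cells exposed to compound at 1 or 10 μg/mL, either 4 h in 5% FCS or 24 h in 10% FCS RPMI1640. MTT then added for 1 h, formazan dissolved in DMSO and read at 550 nm. Viability loss given as % versus 0.5% DMSO vehicle; apparent gains appear negative.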

PBMC cells = assay: Cell mitosis assay; type: cell-based; conditions: Homo sapiens, read-out: % Inhibition of mitosis in PBMC cells at 5 μg/mL
Description: PBMCs from healthy subjects are separated from whole blood (Quintiles, London, UK) using a density gradient (Histopaque®-1077, Sigma-Aldrich, Poole, UK). The PBMCs (3 million cells per sample) are subsequently treated with 2% PHA (Sigma-Aldrich, Poole, UK) for 48 hr, followed by a 20 hr exposure to varying concentrations of test compounds. At 2 hr before collection, PBMCs are treated with demecolcine (0.1 μg/mL; Invitrogen, Paisley, UK) to arrest cells in metaphase. […] Fluorescence is observed using an ATTUNE flow cytometer (Invitrogen, Paisley, UK), gating for lymphocytes.

[4] = test system: IL-8 release, d-U937 cells; assay: LPS-induced IL-8 release in d-U937 cells; type: cell-based; conditions: Homo sapiens, dU937; Table 4c1; read-out: LPS Induced Release of Cytokine in d-U937 Cells, IL-8 IC50
Procedure, shortened: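 IL-8 release after a 4 hr challenge with LPS (0.1 μg/mL, E. coli 0111:B4) following a 2 hr compound pretreatment. Cells were human U937 monocytes differentiated to macrophage-type with PMA 100 ng/mL for 48–72 hr. Relative 50% effective concentration derived from concentration–response data.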

Syk = Syk (Homo sapiens, UniProt P43405); assay: Syk enzyme inhibition (FRET); type: biochemical
Procedure, shortened: as §1

IL-8 release, PBMCs = assay: LPS-induced IL-8 release in PBMC cells; type: cell-based; conditions: Homo sapiens, LPS stimulated, read-out: IC50 Values for Inhibition of Cytokine Release, PBMCs, IL-8
Description: (b) LPS-Induced TNFα/IL-8 Release in PBMC Cells
Peripheral blood mononuclear cells (PBMCs) from healthy subjects are separated from whole blood using a density gradient (Lymphoprep, Axis-Shield Healthcare). The PBMCs are seeded in 96 well plates and treated with compounds at the desired concentration for 2 hours before addition of 1 ng/ml LPS (Escherichia Coli 0111:B4 from Sigma Aldrich) for 24 hours under normal tissue culture conditions (37° C., 5% CO2). The supernatant is harvested for determination of […] concentrations by sandwich ELISA (Duo-set, R&D systems) and read on the fluorescence microplate reader (Varioskan® Flash, ThermoFisher Scientific).

GSK3α [5] = biological target: T1, GSK3α; assay: GSK 3α enzyme inhibition (FRET), Method 2; type: biochemical; conditions: Table 4a2, different laboratory
[6] = Table 4a2, different laboratory

Sequence of cSrc (P12931 whole entry): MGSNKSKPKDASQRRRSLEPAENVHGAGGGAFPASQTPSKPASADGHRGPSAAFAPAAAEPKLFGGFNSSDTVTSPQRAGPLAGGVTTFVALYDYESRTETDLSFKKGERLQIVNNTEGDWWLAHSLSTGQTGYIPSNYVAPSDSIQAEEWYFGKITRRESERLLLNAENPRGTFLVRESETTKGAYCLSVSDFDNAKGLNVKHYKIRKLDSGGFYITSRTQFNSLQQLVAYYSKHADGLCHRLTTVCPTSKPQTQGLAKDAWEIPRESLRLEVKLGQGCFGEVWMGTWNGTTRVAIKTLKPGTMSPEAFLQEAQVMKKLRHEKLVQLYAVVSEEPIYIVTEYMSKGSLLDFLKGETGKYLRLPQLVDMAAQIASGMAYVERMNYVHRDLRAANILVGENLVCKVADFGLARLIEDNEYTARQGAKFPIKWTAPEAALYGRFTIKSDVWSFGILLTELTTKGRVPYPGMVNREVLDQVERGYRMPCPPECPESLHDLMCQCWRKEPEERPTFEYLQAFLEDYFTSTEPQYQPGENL
T1 sequence (P49840 whole entry): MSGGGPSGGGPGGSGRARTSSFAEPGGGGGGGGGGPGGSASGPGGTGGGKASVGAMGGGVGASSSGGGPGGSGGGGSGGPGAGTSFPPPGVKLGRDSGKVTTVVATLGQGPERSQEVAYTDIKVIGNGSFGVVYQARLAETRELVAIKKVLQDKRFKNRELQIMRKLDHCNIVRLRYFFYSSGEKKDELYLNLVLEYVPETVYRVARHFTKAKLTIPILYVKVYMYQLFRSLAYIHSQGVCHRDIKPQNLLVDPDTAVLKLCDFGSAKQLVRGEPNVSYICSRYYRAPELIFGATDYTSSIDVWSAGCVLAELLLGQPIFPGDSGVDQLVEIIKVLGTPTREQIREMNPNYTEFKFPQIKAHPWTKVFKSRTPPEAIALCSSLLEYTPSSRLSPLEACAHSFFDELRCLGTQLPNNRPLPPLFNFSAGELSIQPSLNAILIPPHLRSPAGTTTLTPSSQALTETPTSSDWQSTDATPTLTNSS

| Structure (SMILES) | IC50 (GSK3α [1]) | EC50 [2] | IC50 (cSrc; Table 4a1) | IC50 [3] | Cell viability at time point in d-U937 cells, 4 h (d-U937 cells) | Cell viability at time point in d-U937 cells, 24 h (d-U937 cells) | inhibition at 5 µg/mL (PBMC cells) | IC50 [4] | IC50 (Syk; Table 4a1) | IC50 (IL-8 release, PBMCs) | IC50 (GSK3α [5]) | IC50 (cSrc; [6]) | IC50 (Syk; [6]) |
| --- | --- | --- | --- | --- | --- | --- | --- | --- | --- | --- | --- | --- | --- |
| Cc1ccc(-n2nc(C(C)(C)C)cc2NC(=O)Nc2ccc(Oc3ccnc(Nc4cccc(C(N)=O)c4)n3)c3ccccc23)cc1 [Example 2, 3-((4-((4-(3-(3-(tert-Butyl)-1-(p-tolyl)-1H-pyrazol-5-yl)ureido)naphthalen-1-yl)oxy)pyrimidin-2-yl)amino)benzamide] | 1260 nM | 0.8 nM | 5 nM | 1 nM | −ve (−ve and +ve indicate that the value is below and above respectively, the no significant effect threshold, defined as 30% inhibition at 1 μg/mL at the time point indicated) | −ve (−ve and +ve indicate that the value is below and above respectively, the no significant effect threshold, defined as 30% inhibition at 1 μg/mL at the time point indicated) | 46.5% | 4.5 nM | 250 nM |  |  |  |  |
| COc1cc(Nc2nccc(Oc3ccc(NC(=O)Nc4cc(C(C)C)nn4-c4ccc(C)cc4)c4ccccc34)n2)cc(C(=O)NCCN(C)C)c1 [Example 5, N-(2-(Dimethylamino)ethyl)-3-((4-((4-(3-(3-isopropyl-1-(p-tolyl)-1H-pyrazol-5-yl)ureido)naphthalen-1-yl)oxy)pyrimidin-2-yl)amino)-5-methoxybenzamide] | 1470 nM | 0.2 nM | 2 nM | 0.2 nM | −ve (−ve and +ve indicate that the value is below and above respectively, the no significant effect threshold, defined as 30% inhibition at 1 μg/mL at the time point indicated) | −ve (−ve and +ve indicate that the value is below and above respectively, the no significant effect threshold, defined as 30% inhibition at 1 μg/mL at the time point indicated) | 28.3% | 1.3 nM | 7 nM |  |  |  |  |
| Cc1ccc(-n2nc(C(C)C)cc2NC(=O)Nc2ccc(Oc3ccnc(Nc4cccc(C(=O)NCCN5CCOCC5)c4)n3)c3ccccc23)cc1 [Example 19, 3-((4-((4-(3-(3-isopropyl-1-(p-tolyl)-1H-pyrazol-5-yl)ureido)naphthalen-1-yl)oxy)pyrimidin-2-yl)amino)-N-(2-morpholinoethyl)benzamide] | 1240 nM | 0.3 nM |  |  | −ve (−ve and +ve indicate that the value is below and above respectively, the no significant effect threshold, defined as 30% inhibition at 1 μg/mL at the time point indicated) | −ve (−ve and +ve indicate that the value is below and above respectively, the no significant effect threshold, defined as 30% inhibition at 1 μg/mL at the time point indicated) | 25.3% | 0.2 nM | 4 nM |  |  |  |  |
| COc1cc(C(=O)NCCN2CCOCC2)ccc1Nc1nccc(Oc2ccc(NC(=O)Nc3cc(C(C)C)nn3-c3ccc(C)cc3)c3ccccc23)n1 [Example 36, 4-((4-((4-(3-(3-isopropyl-1-(p-tolyl)-1H-pyrazol-5-yl)ureido)naphthalen-1-yl)oxy)pyrimidin-2-yl)amino)-3-methoxy-N-(2-morpholinoethyl)benzamide] | > 13200 nM | 4.7 nM | 8 nM | 82.3 nM | −ve (−ve and +ve indicate that the value is below and above respectively, the no significant effect threshold, defined as 30% inhibition at 1 μg/mL at the time point indicated) | −ve (−ve and +ve indicate that the value is below and above respectively, the no significant effect threshold, defined as 30% inhibition at 1 μg/mL at the time point indicated) |  | 46 nM | 169 nM | 30.4 nM | ≥ 13200 nM |  |  |
| CCc1cc(NC(=O)Nc2ccc(Oc3ccnc(Nc4cc(OC)cc(C(=O)NCCN5CCOCC5)c4)n3)c3ccccc23)n(-c2ccc(C)cc2)n1 [Example 49, 3-((4-((4-(3-(3-ethyl-1-(p-tolyl)-1H-pyrazol-5-yl)ureido)naphthalen-1-yl)oxy)pyrimidin-2-yl)amino)-5-methoxy-N-(2-morpholinoethyl)benzamide] | > 13500 nM | 9.2 nM | 1 nM | 33 nM | −ve (−ve and +ve indicate that the value is below and above respectively, the no significant effect threshold, defined as 30% inhibition at 1 μg/mL at the time point indicated) | −ve (−ve and +ve indicate that the value is below and above respectively, the no significant effect threshold, defined as 30% inhibition at 1 μg/mL at the time point indicated) |  | 17.2 nM | 57 nM | 19 nM | ≥ 13500 nM |  |  |
| C#Cc1cc(Nc2nccc(Oc3ccc(NC(=O)Nc4cc(C(C)C)nn4-c4ccc(C)cc4)c(Cl)c3Cl)n2)cc(C(=O)NCCN2CCOCC2)c1 [Example 87, 3-((4-(2,3-Dichloro-4-(3-(3-isopropyl-1-(p-tolyl)-1H-pyrazol-5-yl)ureido)-phenoxy)pyrimidin-2-yl)amino)-5-ethynyl-N-(2-morpholinoethyl)benzamide] |  |  |  |  |  |  |  |  |  | 9.4 nM | 5840 nM | 22 nM | 27 nM |
| C#Cc1cc(Nc2nccc(Oc3ccc(NC(=O)Nc4cc(C(C)C)nn4-c4ccc(C)cc4)c(F)c3F)n2)cc(C(=O)NCCN2CCOCC2)c1 [Example 88, 3-((4-(2,3-Difluoro-4-(3-(3-isopropyl-1-(p-tolyl)-1H-pyrazol-5-yl)ureido)-phenoxy)pyrimidin-2-yl)amino)-5-ethynyl-N-(2-morpholinoethyl)benzamide] |  |  |  |  |  |  |  |  |  | 13.1 nM | 172 nM |  |  |
| C#Cc1cc(Nc2nccc(Oc3ccc(NC(=O)Nc4cc(C(C)C)nn4-c4ccc(C)cc4)c(Cl)c3Cl)n2)cc(C(N)=O)c1 [Example 89, 3-((4-(2,3-Dichloro-4-(3-(3-isopropyl-1-(p-tolyl)-1H-pyrazol-5-yl)ureido)-phenoxy)pyrimidin-2-yl)amino)-5-ethynylbenzamide] |  |  |  |  |  |  |  |  |  | 14.6 nM | ≥ 15300 nM |  |  |
| C#Cc1cc(Nc2nccc(Oc3ccc(NC(=O)Nc4cc(C(C)C)nn4-c4ccc(C)cc4)c(Cl)c3Cl)n2)cc(C(=O)NCCN(C)C)c1 [Example 90, 3-((4-(2,3-Dichloro-4-(3-(3-isopropyl-1-(p-tolyl)-1H-pyrazol-5-yl)ureido)-phenoxy)pyrimidin-2-yl)amino)-N-(2-(dimethylamino)ethyl)-5-ethynylbenzamide] |  |  |  |  |  |  |  |  |  | 7.8 nM | 154 nM |  |  |
